# Measured values as given in patent US20190112316A1, “THIAZOLO[3,2-A] PYRIMIDINONE AND OTHER HETEROBICYCLIC PYRIMIDINONE COMPOUNDS FOR USE IN MEDICAL THERAPY” (priority 2015, published 2019).
# How the values were obtained:
# [1] = Compound solubility in water; assay type: physicochemical
# [2] = target: T1, glucocerebrosidase (Gcase) (Homo sapiens, UniProt P04062); assay: Glucocerebrosidase (Gcase) activation assay, 4-methylumbelliferyl-beta-D-glucopyranoside substrate, with saposin C; assay type: biochemical; details: for activation at 0.1 µM: read-out: Percent Gcase Activation 0.1 μM Test Compound; for activation at 1 µM: read-out: Percent Gcase Activation 1 μM Test Compound
# T1 construct: micellar solution containing 10 nM GCase and 100 nM saposin C (Enzo ALX-201-262-C050)
# T1 sequence (P04062 40-536): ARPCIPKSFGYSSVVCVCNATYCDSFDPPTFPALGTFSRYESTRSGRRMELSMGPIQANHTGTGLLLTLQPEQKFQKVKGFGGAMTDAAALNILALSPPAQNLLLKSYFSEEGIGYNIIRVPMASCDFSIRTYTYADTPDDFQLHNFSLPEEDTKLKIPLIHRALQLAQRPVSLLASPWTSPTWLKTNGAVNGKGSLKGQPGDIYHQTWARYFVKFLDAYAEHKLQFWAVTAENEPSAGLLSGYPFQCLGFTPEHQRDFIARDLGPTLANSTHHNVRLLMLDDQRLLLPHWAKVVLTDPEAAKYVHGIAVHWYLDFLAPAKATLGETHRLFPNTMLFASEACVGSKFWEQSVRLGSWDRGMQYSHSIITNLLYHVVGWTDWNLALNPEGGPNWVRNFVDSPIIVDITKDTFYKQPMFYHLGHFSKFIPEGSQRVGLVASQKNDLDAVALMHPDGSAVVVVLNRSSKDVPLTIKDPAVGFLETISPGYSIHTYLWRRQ
# Procedure: A 484 μL aliquot of a 1.0 mg/mL solution of phosphatidylserine (PS) (Sigma P7769) in chloroform was evaporated under a stream of nitrogen for 1 hour. The lipid film was dissolved over 4 minutes of vigorous vortexing in 40 mL of 176 mM K2HPO4/50 mM citric acid (pH 4.7) containing 7.5 μL of triton X-100, resulting in a mixed micellar preparation with a composition of 0.32 mM triton and 0.37 mol % PS. 4-Methylumbelliferyl-beta-D-glucopyranoside (ACROS-337025000) was dissolved in the micellar solution to a final concentration of 2 mM for use as the reaction substrate.
# Test compounds were diluted to the desired concentrations with dimethylsulfoxide (DMSO) from 10 mM stocks, and 0.41 μL of the DMSO compound mixture was added to 100 μL of micellar solution containing 10 nM GCase and 100 nM saposin C (Enzo ALX-201-262-C050). Pre-incubation was allowed to occur for 30 minutes at room temperature, after which the reaction was initiated by combining 25 μL of substrate solution with 25 μL of compound/GCase/saposin mixture. The reaction proceeded for 15 minutes at room temperature and was stopped by adding 150 μL of 1M glycine, pH 12.5. The endpoint of the reaction was monitored by measuring fluorescence intensity (excitation: 365 nm; emission: 440 nm) on a SpectraMax i3 instrument (Molecular Devices). Test compounds were screened at 1.0 and 0.1 μM final concentration, and subsequent 8-point dose response curves were obtained using 3-fold dilutions from a maximum final concentration of 5 μM.
structure (smiles),measurement,setting,value
CCCCC1CCC(NC(=O)c2cnc3n(c2=O)C(C)CS3)CC1 (stereo not drawn),solubility,[1],1.3 µg/mL
same,activation at 0.1 µM,[2],5 to 20%
same,activation at 1 µM,[2],> 20%
O=C(NC1CCC(c2ccccc2)CC1)c1cnc2n(c1=O)CCS2 (stereo not drawn),solubility,[1],10.6 µg/mL
same,activation at 0.1 µM,[2],5 to 20%
same,activation at 1 µM,[2],> 20%
CCC1CCC(NC(=O)c2cnc3sccn3c2=O)CC1 (stereo not drawn),solubility,[1],4.9 µg/mL
same,activation at 0.1 µM,[2],5 to 20%
same,activation at 1 µM,[2],> 20%
CCC(C)c1ccc(NC(=O)c2cnc3ccc(C)cn3c2=O)cc1 (stereo not drawn),solubility,[1],0.05 µg/mL
same,activation at 0.1 µM,[2],< 5%
same,activation at 1 µM,[2],5 to 20%
O=C(NC1Cc2ccccc2C1)c1cnc2sccn2c1=O,solubility,[1],1.2 µg/mL
same,activation at 0.1 µM,[2],5 to 20%
same,activation at 1 µM,[2],> 20%
CC1CCC(NC(=O)c2cnc3n(c2=O)CCS3)CC1 (stereo not drawn),solubility,[1],21.4 µg/mL
same,activation at 0.1 µM,[2],< 5%
same,activation at 1 µM,[2],5 to 20%
CC(C)c1ccc(NC(=O)c2cnc3sccn3c2=O)cn1,solubility,[1],13.8 µg/mL
same,activation at 0.1 µM,[2],< 5%
same,activation at 1 µM,[2],< 5%
O=C(Nc1ccc2c(c1)CCC2)c1cnc2n(c1=O)CCS2,solubility,[1],0.3 µg/mL
same,activation at 0.1 µM,[2],< 5%
same,activation at 1 µM,[2],5 to 20%
CC(C)c1ccc(NC(=O)c2cnc3sccn3c2=O)nc1,solubility,[1],2.7 µg/mL
same,activation at 0.1 µM,[2],< 5%
same,activation at 1 µM,[2],5 to 20%
Cc1cccc2ncc(C(=O)NC3CCCc4ccccc43)c(=O)n12 (stereo not drawn),solubility,[1],13.9 µg/mL
same,activation at 0.1 µM,[2],5 to 20%
same,activation at 1 µM,[2],> 20%
CCCCC1CCC(NC(=O)c2cnc3n(c2=O)CC(C)S3)CC1 (stereo not drawn),solubility,[1],1.2 µg/mL
same,activation at 0.1 µM,[2],< 5%
same,activation at 1 µM,[2],> 20%
O=C(Nc1ccc(N2CCCCC2)cc1)c1cnc2n(c1=O)CCS2,solubility,[1],4 µg/mL
same,activation at 0.1 µM,[2],< 5%
same,activation at 1 µM,[2],< 5%
O=C(NCC1COc2ccccc2O1)c1cnc2sccn2c1=O (stereo not drawn),solubility,[1],22.6 µg/mL
same,activation at 0.1 µM,[2],< 5%
same,activation at 1 µM,[2],< 5%
O=C(Nc1ccc(-n2ccnc2)cc1)c1cnc2n(c1=O)CCS2,solubility,[1],0.8 µg/mL
same,activation at 0.1 µM,[2],< 5%
same,activation at 1 µM,[2],< 5%
O=C(NC1CCc2ccccc2C1)c1cnc2n(c1=O)CCS2 (stereo not drawn),solubility,[1],30.7 µg/mL
same,activation at 0.1 µM,[2],< 5%
same,activation at 1 µM,[2],5 to 20%
CCN1CCN(c2ccc(NC(=O)c3cnc4cccc(C)n4c3=O)cc2)CC1,solubility,[1],33.3 µg/mL
same,activation at 0.1 µM,[2],< 5%
same,activation at 1 µM,[2],5 to 20%
Cc1cccc2ncc(C(=O)Nc3ccc4c(c3)CN(C)C4)c(=O)n12,solubility,[1],35.4 µg/mL
same,activation at 0.1 µM,[2],< 5%
same,activation at 1 µM,[2],< 5%
C[C@H](NC(=O)c1cnc2n(c1=O)CCS2)c1ccccc1,solubility,[1],37.2 µg/mL
same,activation at 0.1 µM,[2],5 to 20%
same,activation at 1 µM,[2],5 to 20%
CCc1ccc(NC(=O)c2cnc3n(c2=O)CCS3)cc1,solubility,[1],5.1 µg/mL
same,activation at 0.1 µM,[2],< 5%
same,activation at 1 µM,[2],> 20%
C#Cc1ccc(NC(=O)c2cnc3n(c2=O)CCS3)cc1,solubility,[1],1.5 µg/mL
same,activation at 0.1 µM,[2],< 5%
same,activation at 1 µM,[2],5 to 20%
C#Cc1ccc(NC(=O)c2cnc3sccn3c2=O)cc1,solubility,[1],3.4 µg/mL
same,activation at 0.1 µM,[2],5 to 20%
same,activation at 1 µM,[2],> 20%
O=C(NC1CCCC2(CCCCO2)C1)c1cnc2n(c1=O)CCS2 (stereo not drawn),solubility,[1],36 µg/mL
same,activation at 0.1 µM,[2],< 5%
same,activation at 1 µM,[2],< 5%
Cc1cccc2ncc(C(=O)NC3CCc4ccccc4C3)c(=O)n12 (stereo not drawn),solubility,[1],4.3 µg/mL
same,activation at 0.1 µM,[2],< 5%
same,activation at 1 µM,[2],5 to 20%
O=C(NC1CCCCCC1)c1cnc2n(c1=O)CCS2,solubility,[1],20.8 µg/mL
same,activation at 0.1 µM,[2],< 5%
same,activation at 1 µM,[2],5 to 20%
O=C(NC1CCc2ccccc21)c1cnc2n(c1=O)CCS2 (stereo not drawn),solubility,[1],17.6 µg/mL
same,activation at 0.1 µM,[2],< 5%
same,activation at 1 µM,[2],5 to 20%
CCN1CCN(c2ccc(NC(=O)c3cnc4n(c3=O)CCS4)cc2)CC1,solubility,[1],34.8 µg/mL
same,activation at 0.1 µM,[2],< 5%
same,activation at 1 µM,[2],5 to 20%
Cc1cccc2ncc(C(=O)NC3CCC(C)CC3)c(=O)n12 (stereo not drawn),solubility,[1],18.7 µg/mL
same,activation at 0.1 µM,[2],< 5%
same,activation at 1 µM,[2],> 20%
CCCCCO[C@H]1CC[C@H](NC(=O)c2cnc3n(c2=O)CCS3)CC1,solubility,[1],8.4 µg/mL
same,activation at 0.1 µM,[2],< 5%
same,activation at 1 µM,[2],5 to 20%
Cc1cccc2ncc(C(=O)NC3CCOCC3)c(=O)n12,solubility,[1],31 µg/mL
same,activation at 0.1 µM,[2],< 5%
same,activation at 1 µM,[2],5 to 20%
Cc1cccc2ncc(C(=O)NC3CCC(c4ccccc4)CC3)c(=O)n12 (stereo not drawn),solubility,[1],3.5 µg/mL
same,activation at 0.1 µM,[2],5 to 20%
same,activation at 1 µM,[2],> 20%
CN1Cc2ccc(NC(=O)c3cnc4n(c3=O)CCS4)cc2C1,solubility,[1],32.4 µg/mL
same,activation at 0.1 µM,[2],< 5%
same,activation at 1 µM,[2],5 to 20%
CC(Cc1ccc(Cl)cc1)NC(=O)c1cnc2n(c1=O)CCS2 (stereo not drawn),solubility,[1],16.7 µg/mL
same,activation at 0.1 µM,[2],< 5%
same,activation at 1 µM,[2],5 to 20%
CCc1ccc(NC(=O)c2cnc3ccccn3c2=O)cc1,solubility,[1],1 µg/mL
same,activation at 0.1 µM,[2],< 5%
same,activation at 1 µM,[2],5 to 20%
Cc1cccc2ncc(C(=O)Nc3ccc(N4CCCCC4)cc3)c(=O)n12,solubility,[1],1.4 µg/mL
same,activation at 0.1 µM,[2],< 5%
same,activation at 1 µM,[2],< 5%
O=C(Nc1ccc2c(c1)OCCO2)c1cnc2n(c1=O)CCS2,solubility,[1],9.5 µg/mL
same,activation at 0.1 µM,[2],< 5%
same,activation at 1 µM,[2],< 5%
O=C(NC1CCCCC12CCCCO2)c1cnc2n(c1=O)CCS2 (stereo not drawn),solubility,[1],37.2 µg/mL
same,activation at 0.1 µM,[2],< 5%
same,activation at 1 µM,[2],< 5%
C[C@@H](NC(=O)c1cnc2n(c1=O)CCS2)c1ccccc1,solubility,[1],36.8 µg/mL
same,activation at 0.1 µM,[2],< 5%
same,activation at 1 µM,[2],< 5%
CCc1ccc(NC(=O)c2cnc3scc(C)n3c2=O)cc1,solubility,[1],1.1 µg/mL
same,activation at 0.1 µM,[2],< 5%
same,activation at 1 µM,[2],> 20%
CCc1ccc(CCNC(=O)c2cnc3sccn3c2=O)cc1,solubility,[1],2.5 µg/mL
same,activation at 0.1 µM,[2],< 5%
same,activation at 1 µM,[2],5 to 20%
O=C(NC1CCOCC1)c1cnc2n(c1=O)CCS2,solubility,[1],26.3 µg/mL
same,activation at 0.1 µM,[2],< 5%
same,activation at 1 µM,[2],5 to 20%
C#Cc1ccc(NC(=O)c2cnc3cccc(C)n3c2=O)cc1,solubility,[1],1.5 µg/mL
same,activation at 0.1 µM,[2],< 5%
same,activation at 1 µM,[2],5 to 20%
Cc1cccc2ncc(C(=O)NC3CCCCCC3)c(=O)n12,solubility,[1],9.3 µg/mL
same,activation at 0.1 µM,[2],< 5%
same,activation at 1 µM,[2],> 20%
